Read-outs that look alike come from different tables or passages of the source.
Key:
Assay type in all cases: cell-based
[1] = system: HA-tagged HBeAg (HBV) in DESHAe82 cells; assay: AlphaLisa eAg assay: HA-HBeAg level in DESHAe82 cell culture (anti-HBV / anti-cccDNA activity); conditions: Hepatitis B virus, 216 h, read-out: AlphaLisa_eAg EC50 (μM)
Description: Evaluation of anti-HBV activity of the compounds in in vitro cell culture studies was conducted using a modification of the assay system described in Cai et al., 2012, Antimicrobial Agents Chemotherapy 56(8):4277-88 and PCT/EP/2015/06838. In the DESHAe82 cell culture system, the HA epitope-tagged secreted HBV “e antigen” (HBeAg) and HBV precore RNA are produced only from the cccDNA circular template that is formed after HBV replication in absence of Tetracycline (Tet). The DESHAe82 cell line produces high levels of cccDNA synthesis and HA-HBeAg, and high specific readout signals with low noise. Two assay systems, a chemiluminescence ELISA (CLIA) and a proximity […] assay (AlphaLISA) were developed and used for high-sensitivity detection of HA-tagged HBeAg.
To test the compound, DESHAe82 were plated in 96 well tissue-culture treated microtiter plates in DMEM/F12 medium supplemented with 10% fetal bovine serum+1% penicillin-streptomycin with Tet, and incubated in a humidified incubator at 37° C. and 5% CO2 overnight. Next day, the cells were switched to fresh medium without Tet and treated with a test compound, over a range of concentrations (compound was solubilized in 100% DMSO before dilution in cell culture media, and the final DMSO concentration in the assay was 0.5%), and incubated for a duration of 9 days in a humidified incubator at 37° C. and 5% CO2. Untreated negative control samples (0.5% DMSO only) were included on each plate in multiple wells. On day 9, media was harvested and removed to a fresh plate, and level of HA-HBeAg was determined by CLIA or AlphaLISA. Anti-cccDNA activity of each test compound concentration was calculated as a percentage of HA-HBeAg signal detected in negative control samples versus compound-treated samples, and EC50 value for each compound was defined as the concentration that reduced the HA-HBeAg signal by 50%.

[2] = system: HBV rcDNA in HepDE19 cells; assay: HepDE19 assay with bDNA quantitation of HBV rcDNA; conditions: Hepatitis B virus
From the text: (§1) The invention further provides a method of screening compounds for activity against HBV, as exemplified herein. In certain embodiments, the method comprises a HepDE19 assay with bDNA quantitation of HBV rcDNA. HepDE19 cell culture system is a HepG2 (human hepatocarcinoma) derived cell line that supports HBV DNA replication and cccDNA formation in a tetracycline (Tet)-regulated manner and produces HBV rcDNA and a detectable reporter molecule dependent on the production and maintenance of cccDNA (Tavis & Lomonosova, 2015, Antiviral Res. 118:132-138). In certain non-limiting embodiments, HepDE19 (50,000 cells/well) are plated in 96 well collagen-coated tissue-culture treated microtiter plates in DMEM/F12 medium supplemented with 10% fetal bovine serum, 1% penicillin-streptomycin and 1 μg/ml tetracycline and incubated in a humidified incubator at 37° C. and 5% CO2 overnight. Next day, the cells are switched to fresh medium without tetracycline and incubated for 4 hrs at 37° C. and 5% CO2. The cells are treated with fresh Tet-free medium with compounds at concentrations starting at 25 μM and a serial, ½ log, 8-point, titration series in duplicate. The final DMSO concentration in the assay is 0.5%. The plates are incubated for 7 days in a humidified incubator at 37° C. and 5% CO2. Following a 7 day-incubation, the level of rcDNA present in the inhibitor-treated wells is measured using a Quantigene 2.0 bDNA assay kit (Affymetrix, Santa Clara, Calif.) with HBV specific custom probe set and manufacturer's instructions.
In order to differentiate HBV RNaseH inhibitors from other classes of HBV inhibitors (such as, for example, nucleos(t)ide analogs or capsid inhibitors), the assay method is configured by incorporating the quantitation of both the minus-strand and the plus-strand of HBV rcDNA levels using specifically designed HBV probe sets. This is based on the observation that inhibition of RNaseH enzyme activity results in a block of the synthesis of the plus strand synthesis by the viral polymerase that follows the synthesis of the minus-strand of rcDNA (Guo, et al., 2007, J. Virol. 81:12472-12484). […] In contrast, treatment with HBV inhibitors such as a nucleos(t)ide analogs or capsid inhibitors reduces production of both strands of HBV rcDNA in cells. Concurrently, the effect of compounds on cell viability can be assessed using replicate plates, plated at a density of 5,000 cells/well and incubated for 4 days, to determine the ATP content as a measure of cell viability using the cell-titer glo reagent (CTG; Promega Corporation, Madison, Wis.) as per manufacturer's instructions. The plates are read using a Victor luminescence plate reader (PerkinElmer Model 1420 Multilabel counter), and the relative luminescence units (RLU) data generated from each well was calculated as % inhibition of the untreated control wells and analyzed using XL-Fit module in Microsoft Excel to determine EC50 and EC90 (bDNA) and CC50 (CTG) values using a 4-parameter curve fitting algorithm.
HepDE19 cell culture system is a HepG2 (human hepatocarcinoma) derived cell line that supports HBV DNA replication and cccDNA formation in a tetracycline (Tet)-regulated manner and produces HBV rcDNA and a detectable reporter molecule dependent on the production and maintenance of cccDNA (Guo, et al., 2007, J. Virol. 81:12472-12484). HepDE19 (50,000 cells/well) were plated in 96 well collagen-coated tissue-culture treated microtiter plates in DMEM/F12 medium supplemented with 10% fetal bovine serum, 1% penicillin-streptomycin and 1μg/ml tetracycline and incubated in a humidified incubator at 37° C. and 5% CO2 overnight. Next day, the cells were switched to fresh medium without tetracycline and incubated for 4 hrs at 37° C. and 5%CO2. The cells were treated with fresh Tet-free medium with compounds at concentrations starting at 25 μM and a serial, ½ log, 8-point, titration series in duplicate. The final DMSO concentration in the assay was 0.5%. […]

[3] = system: plus-strand of HBV rcDNA in HepDE19 cells; assay: HepDE19 assay with bDNA quantitation of the plus-strand of HBV rcDNA; conditions: Hepatitis B virus
From the text: as §1
In order to differentiate HBV RNaseH inhibitors from other classes of HBV inhibitors (such as, for example, nucleos(t)ide analogs or capsid inhibitors), the assay method is configured by incorporating the quantitation of both the minus-strand and the plus-strand of HBV rcDNA levels using specifically designed HBV probe sets. […] Concurrently, the effect of compounds on cell viability can be assessed using replicate plates, plated at a density of 5,000 cells/well and incubated for 4 days, to determine the ATP content as a measure of cell viability using the cell-titer glo reagent (CTG; Promega Corporation, Madison, Wis.) as per manufacturer's instructions. The plates are read using a Victor luminescence plate reader (PerkinElmer Model 1420 Multilabel counter), and the relative luminescence units (RLU) data generated from each well was calculated as % inhibition of the untreated control wells and analyzed using XL-Fit module in Microsoft Excel to determine EC50 and EC90 (bDNA) and CC50 (CTG) values using a 4-parameter curve fitting algorithm. […]

[4] = 168 h, HepDE19 cells, 7 day incubation, top concentration 25 μM, read-out: bDNA_RC DNA EC50
[5] = 168 h, HepDE19 cells, 7 day incubation, plus-strand probe set, top concentration 25 μM, read-out: bDNA_RC DNA PS EC50
[6] = HepDE19, 168 h, read-out: bDNA_RC DNA EC50 (μM)

| Compound | EC50 [1] [µM] | EC50 [2, 4] [µM] | EC50 [3, 5] [µM] | EC50 [2, 6] [µM] | EC50 ([3]; HepDE19, 168 h, read-out: bDNA_RC DNA PS EC50 (μM)) [µM] |
| --- | --- | --- | --- | --- | --- |
| CCOC(=O)C1C(=O)N(O)C(=O)c2ccc(OC)nc21 (stereo not shown) [Compound 1, Ethyl 6-hydroxy-2-methoxy-5,7-dioxo-5,6,7,8-tetrahydro-1,6-naphthyridine-8-carboxylate] | 2.4 | > 25 | – | – | – |
| CCN(CC)C(=O)C1C(=O)N(O)C(=O)c2ccc(OC)nc21 (stereo not shown) [Compound 2, N,N-diethyl-6-hydroxy-2-methoxy-5,7-dioxo-5,6,7,8-tetrahydro-1,6-naphthyridine-8-carboxamide] | 1.5 | > 25 | 11.2 | – | – |
| COc1ccc2c(n1)C(C(=O)Nc1ccc(Cl)cc1)C(=O)N(O)C2=O (stereo not shown) [Compound 3, N-(4-chlorophenyl)-6-hydroxy-2-methoxy-5,7-dioxo-5,6,7,8-tetrahydro-1,6-naphthyridine-8-carboxamide] | 9.6 | – | – | 9.4 | 16 |
| COc1ccc2c(n1)C(C(=O)Nc1ccc(F)cc1)C(=O)N(O)C2=O (stereo not shown) [Compound 4, N-(4-fluorophenyl)-6-hydroxy-2-methoxy-5,7-dioxo-5,6,7,8-tetrahydro-1,6-naphthyridine-8-carboxamide] | 9.6 | – | – | > 25 | – |
| COc1ccc2c(n1)C(C(=O)NCc1ccc(Cl)cc1)C(=O)N(O)C2=O (stereo not shown) [Compound 5, N-(4-chlorobenzyl)-6-hydroxy-2-methoxy-5,7-dioxo-5,6,7,8-tetrahydro-1,6-naphthyridine-8-carboxamide] | > 50 | > 25 | > 25 | – | – |
| O=C(NCc1ccc(F)cc1)C1C(=O)N(O)C(=O)c2ccc(O)nc21 (stereo not shown) [Compound 6, N-(4-fluorobenzyl)-2,6-dihydroxy-5,7-dioxo-5,6,7,8-tetrahydro-1,6-naphthyridine-8-carboxamide] | 3.6 | > 25 | 15 | – | – |

Reference: patent US10358447B2, “Substituted 2-N-hydroxy-1,3-dioxo-1,2,3,4-tetrahydronaphthyridines, and methods of making and using same” (ARBUTUS BIOPHARMA CORPORATION, priority 2017, dated 2019)
